# According to patent US8987312B2, “Alpha-keto heterocycles as FAAH inhibitors” (The Scripps Research Institute, priority 2008, dated 2015):
# Biological target: T1, purified recombinant rat FAAH (Rattus norvegicus, UniProt P97612)
# T1 construct: The truncated rat FAAH (rFAAH) was expressed in E. coli and purified as described; made in house; host or cells: Escherichia coli
# T1 sequence (P97612 30-579 limits assumed): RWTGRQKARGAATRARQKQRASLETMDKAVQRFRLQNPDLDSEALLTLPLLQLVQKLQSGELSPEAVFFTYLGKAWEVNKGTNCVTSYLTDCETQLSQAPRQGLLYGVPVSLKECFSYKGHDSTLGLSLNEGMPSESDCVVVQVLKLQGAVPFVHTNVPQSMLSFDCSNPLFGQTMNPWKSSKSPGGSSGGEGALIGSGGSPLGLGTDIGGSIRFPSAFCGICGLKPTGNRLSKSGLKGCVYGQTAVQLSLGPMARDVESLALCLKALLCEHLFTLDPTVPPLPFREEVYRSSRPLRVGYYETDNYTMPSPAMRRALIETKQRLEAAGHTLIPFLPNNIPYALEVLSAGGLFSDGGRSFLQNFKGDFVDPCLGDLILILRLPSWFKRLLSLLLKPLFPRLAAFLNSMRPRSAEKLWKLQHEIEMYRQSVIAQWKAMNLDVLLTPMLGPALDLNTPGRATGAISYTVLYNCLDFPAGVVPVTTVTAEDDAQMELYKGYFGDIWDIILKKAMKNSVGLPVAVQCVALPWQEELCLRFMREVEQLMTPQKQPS
# Experiment: FAAH inhibition enzyme assay (14C-oleamide hydrolysis, Dixon plot), rat enzyme
# Format: biochemical
# Settings: Table 2; rat FAAH, pH 9 assay conditions; read-out: Ki
# Description: The purified recombinant rFAAH was used in the inhibition assays unless otherwise indicated.
# The ^14C-labeled oleamide (substrate) and oleic acid (product) were extracted with EtOAc and analyzed by TLC.
row,SMILES,Ki [nM]
1,"O=C(CCCCCCc1ccccc1)c1nnc(-c2cccs2)o1 [8d, 7-Phenyl-1-(5-(thien-2-yl)-1,3,4-oxadiazol-2-yl)-heptan-1-one]",0.8
2,"O=C(CCCCCCc1ccccc1)c1nc(-c2ccco2)no1 [9c, 1-(3-(Furan-2-yl)-1,2,4-oxadiazol-5-yl)-7-phenylheptan-1-one]",1
3,"O=C(CCCCCCc1ccccc1)c1nc(-c2cccs2)no1 [9d, 7-Phenyl-1-(3-(thiophen-2-yl)-1,2,4-oxadiazol-5-yl)-heptan-1-one]",1.6
4,"O=C(CCCCCCc1ccccc1)c1noc(-c2ccco2)n1 [10c, 1-(5-(Furan-2-yl)-1,2,4-oxadiazol-3-yl)-7-phenylheptan-1-one]",8.5
5,"O=C(CCCCCCc1ccccc1)c1noc(-c2cccs2)n1 [10d, 7-Phenyl-1-(5-(thiophen-2-yl)-1,2,4-oxadiazol-3-yl)-heptan-1-one]",44
6,"O=C(CCCCCCc1ccccc1)c1ncc(-c2ccco2)s1 [11c, 1-(5-(Furan-2-yl)-thiazol-2-yl)-7-phenylheptan-1-one]",1500
7,"O=C(CCCCCCc1ccccc1)c1ncc(-c2cccs2)s1 [11d, 7-Phenyl-1-(5-(thiophen-2-yl)-thiazol-2-yl)-heptan-1-one]",2000
8,"O=C(CCCCCCc1ccccc1)c1nnc(-c2ccco2)s1 [12c, 1-(5-(Furan-2-yl)-1,3,4-thiadiazol-2-yl)-7-phenylheptan-1-one]",7.4
9,"O=C(CCCCCCc1ccccc1)c1nnc(-c2cccs2)s1 [12d, 7-Phenyl-1-(5-(thiophen-2-yl)-1,3,4-thiadiazol-2-yl)-heptan-1-one]",27
10,"O=C(CCCCCCc1ccccc1)c1ccc(-c2ccco2)nn1 [13c, 1-(6-(Furan-2-yl)-pyridazin-3-yl)-7-phenylheptan-1-one]",40
11,"O=C(CCCCCCc1ccccc1)c1ccc(-c2cccs2)nn1 [13d, 7-Phenyl-1-(6-(thiophen-2-yl)-pyridazin-3-yl)-heptan-1-one]",46

# More lines, now with the values ahead:
row,Ki [nM],SMILES
1,> 1000,"O=C(CCCCCCc1ccccc1)c1nnc[nH]1 [14a, 7-Phenyl-1-(4H-1,2,4-triazol-3-yl)-heptan-1-one]"
2,> 100000,"O=C(CCCCCCc1ccccc1)c1nnc(-c2ccccn2)[nH]1 [14b, 7-Phenyl-1-(5-(pyridin-2-yl)-4H-1,2,4-triazol-3-yl)-heptan-1-one]"
3,> 1000,"O=C(CCCCCCc1ccccc1)c1nnc(-c2ccco2)[nH]1 [14c, 1-(5-(Furan-2-yl)-4H-1,2,4-triazol-3-yl)-7-phenylheptan-1-one]"
4,> 1000,"O=C(CCCCCCc1ccccc1)c1nnc(-c2cccs2)[nH]1 [14d, 7-Phenyl-1-(5-(thiophen-2-yl)-4H-1,2,4-triazol-3-yl)-heptan-1-one]"
5,5,"O=C(CCCCCCc1ccccc1)c1nnn(-c2ccco2)n1 [15c, 1-(2-(Furan-2-yl)-2H-tetrazol-5-yl)-7-phenylheptan-1-one]"
6,8.5,"O=C(CCCCCCc1ccccc1)c1nnn(-c2cccs2)n1 [15d, 7-Phenyl-1-(2-(thiophen-2-yl)-2H-tetrazol-5-yl)-heptan-1-one]"
7,16,"O=C(CCCCCCc1ccccc1)c1nnn(-c2ccccc2)n1 [15e, 7-Phenyl-1-(2-phenyl-2H-tetrazol-5-yl)-heptan-1-one]"

# Same assay, conditions: rat FAAH, pH 9 assay conditions
row,SMILES,FAAH inhibition (in words)
1,"COC(=O)c1nnc(C(=O)CCCCCCc2ccccc2)[nH]1 [14h, Methyl 5-(7-Phenylheptanoyl)-4H-1,2,4-triazole-3-carboxylate]",inactive
2,"Cn1nnc(C(=O)CCCCCCc2ccccc2)n1 [19a, 1-(2-Methyl-2H-tetrazol-5-yl)-7-phenylheptan-1-one]",displayed FAAH inhibition at levels consistent with related compounds
3,"Cn1nnnc1C(=O)CCCCCCc1ccccc1 [19b, 1-(1-Methyl-1H-tetrazol-5-yl)-7-phenylheptan-1-one]",displayed FAAH inhibition at levels consistent with related compounds

# Same assay, conditions: with respect to oxazole 2
row,loss of FAAH inhibition [fold],SMILES
1,> 4000,"O=C(CCCCCCc1ccccc1)c1cnc(-c2ccccn2)o1 [compound 6, 7-Phenyl-1-(2-(pyridin-2-yl)oxazol-5-yl)-heptan-1-one]"
